Read-outs that look alike come from different tables or passages of the source.
Tests used:
[1] = Static stability at elevated humidity (appearance and XRPD after storage); conditions: for Result (stability of screening orotic acid salts): Table 3, XRPD dry and after 1 week at 40° C./75% relative humidity (FIG. 14); for Result (stability of screening fumaric acid salts): Table 8, 40° C./75% RH, 1 day; for Static stability 25° C./96% RH: storage at 25° C./96% RH; for Static stability 25° C./96% RH / Static stability 40° C./75% RH: up to 1 week, appearance and XRPD; for Static stability 40° C./75% RH: storage at 40° C./75% RH
[2] = exposed to 650° C.
[3] = for Behaviour after deliquescence when humidity is reduced / On desorption, moisture retained down to / water lost by: GVS desorption; for Total weight change 0-90% RH / Hygroscopicity / behaviour in GVS experiment / Relative humidity at which sample deliquesced in GVS (stable until) / On desorption, moisture retained down to / water lost by: 25° C.; for XRPD of residue after GVS: residue recovered after GVS isotherm; for Relative humidity at which sample deliquesced in GVS (stable until): GVS adsorption
Procedure: Sorption isotherms were obtained using a SMS DVS Intrinsic moisture sorption analyzer, controlled by DVS Intrinsic Control software v1.0.1.2 (or v 1.0.1.3). The sample temperature was maintained at 25° C. by the instrument controls. The humidity was controlled by mixing streams of dry and wet nitrogen, with a total flow rate of 200 ml/min The relative humidity was measured by a calibrated Rotronic probe (dynamic range of 1.0-100% RH), located near the sample. The weight change, (mass relaxation) of the sample as a function of % RH was constantly monitored by the microbalance (accuracy±0.005 mg).
Typically 5-20 mg of sample was placed in a tared mesh stainless steel basket under ambient conditions. The sample was loaded and unloaded at 40% RH and 25° C. (typical room conditions). A moisture sorption isotherm was performed as outlined below (2 scans giving 1 complete cycle). The standard isotherm was performed at 25° C. at 10% RH intervals over a 0-90% RH range. Data analysis was carried out using Microsoft Excel using DVS Analysis Suite v6.2 (or 6.1 or 6.0).
The sample is recovered after completion of the isotherm and re-analyzed by XRPD.

Molecule: CN1CCCC1c1cccnc1.O=C(O)c1cc(=O)[nH]c(=O)[nH]1.O=C(O)c1cc(=O)[nH]c(=O)[nH]1 (centres unmarked) [Formation in ethanol]
- Result (stability of screening orotic acid salts) [1]: Stable

Molecule: CN1CCCC1c1cccnc1.O=C(O)C=CC(=O)O (centres unmarked) [Formation in neat nicotine]
- Result (stability of screening fumaric acid salts) [1]: Deliquesced

Molecule: CN1CCCC1c1cccnc1.O=C(O)c1cc(=O)[nH]c(=O)[nH]1 (centres unmarked) [Formation in water]
- Result (stability of screening orotic acid salts) [1]: Stable

Molecule: CN1CCCC1c1cccnc1.O=C(O)/C=C/C(=O)O (centres unmarked) [Fumarate salt (prepared in THF), nicotine fumarate]
- Nicotine liberated on decomposition (peak areas) [2]: 97 % peak areas
- Behaviour after deliquescence when humidity is reduced ([3]; fumarate): remains a liquid
- Behaviour after deliquescence when humidity is reduced ([3]; listed as Fumarate Pattern 1, fumarate): does not re-crystallize
- Weight gain from 0-90% RH in the GVS isotherm ([3]; GVS isotherm, 0-90% RH): 82%
- Total weight change 0-90% RH ([3]; GVS isotherm, 0-90% RH): Total weight change 0-90% RH = 82 wt. %
- Hygroscopicity / behaviour in GVS experiment ([3]; 0-90% RH, fumarate): wt. %, sample deliquesces and
- Hygroscopicity / behaviour in GVS experiment ([3]; 0-90% RH, listed as Fumarate Pattern 1, fumarate): hygroscopic
- Humidity at which the form deliquesces (elevated humidities) [1]: > 75 % RH

Molecule: CN1CCCC1c1cccnc1.O=C(O)c1cc(=O)[nH]c(=O)[nH]1 (centres unmarked) [Grinding]
- Result (stability of screening fumaric acid salts) [1]: Deliquesced

Molecule: (S)-nicotine bis-orotate [Salt A]
- Nicotine liberated on decomposition (peak areas) [2]: 97 % peak areas
- Total weight change 0-90% RH ([3]; GVS isotherm, 0-90% RH): RH = 0.8 wt. %, steady change in
- Hygroscopicity / behaviour in GVS experiment ([3]; 0-90% RH): only slightly hygroscopic
- XRPD of residue after GVS [3]: XRPD of residue showed no
- Thermal stability: thermally stable
- Static stability 25° C./96% RH [1]: Pattern 1, runny material
- Static stability 25° C./96% RH ([1]; listed as Orotate Pattern 1): runny material
- Static stability 25° C./96% RH ([1]; listed as bis-orotate salt-co-crystal): runny material
- Static stability 40° C./75% RH [1]: No change

Molecule: (S)-nicotine mono-orotate hemi-hydrate [Salt B]
- Nicotine liberated on decomposition (peak areas) [2]: 97 % peak areas
- Relative humidity at which sample deliquesced in GVS (stable until) [3]: 80% RH then deliquesced On
- Relative humidity at which sample deliquesced in GVS (stable until) ([3]; listed as Orotate Pattern 2): 80 % RH
- Behaviour after deliquescence when humidity is reduced [3]: re-crystallized
- On desorption, moisture retained down to / water lost by [3]: down to 60% RH XRPD of residue
- On desorption, moisture retained down to / water lost by ([3]; listed as Orotate Pattern 2): 60 % RH
- Total weight change 0-90% RH ([3]; GVS isotherm, 0-90% RH): RH = ~60 wt. %, stable until
- XRPD of residue after GVS [3]: Pattern 2 with some Orotate Pattern 1
- XRPD of residue after GVS ([3]; listed as Orotate Pattern 2): contained some Pattern 1 material
- Stability on exposure to high / elevated humidity ([1]; high humidity, general statement): not stable to exposure to high humidity
- Static stability 25° C./96% RH [1]: Sticky after 24 hours, deliquesced
- Static stability 25° C./96% RH ([1]; listed as Orotate Pattern 2): deliquesced
- Static stability 40° C./75% RH [1]: Pattern 2, sticky material
- Static stability 40° C./75% RH ([1]; listed as Orotate Pattern 2): sticky material

Source: patent US10865192B2, “Nicotine salts, co-crystals, and salt co-crystal complexes” (priority 2014, dated 2020)
